According to patent US20240060989A1, “METHODS FOR MEASURING CRALBP ACTIVITY” (NOVARTIS AG, priority 2019, published 2024):

Biological target: T1, human CRALBP protein (Homo sapiens, UniProt P12271)
T1 construct: purchased GeneTex GTX109228-pro
Assay: CRALBP binding assay, Biacore surface plasmon resonance (proteinA/G capture)
Settings: for Ka: 1:1 binding model, Biacore T200
Description: Binding of 11-cis-retinol to human CRALBP protein was assessed for affinity determinations using Biacore. Kinetic rate constants was performed via surface plasmon resonance (SPR) using the Biacore T200 instrument (Cytiva, formerly GE Healthcare Lifesciences) as described below. The proteinA/G capture method was utilized in order to determine kinetics for 11-cis-retinol.
Recombinant proteinA/G (PIERCE, Cat #21186) was immobilized on the chip surface by using amino-coupling procedure according to the supplier's instruction (Cytiva, BR-1000-50). This immobilized proteinA/G captured commercial anti-CRALBP mouse IgG (Sigma, WH0006017M1, lot #11319-1H7), which then captured human CARLBP protein (GeneTex, GTX109228-pro, lot #42226) on chip surface. The 11-cis-retinol (Biosynth Carbosynth, FR163659) flowed over as analyte.
The 11-cis-retinol concentration started at […] and was serially diluted at one part to one part for five levels of concentration. Regeneration was performed at the end of each cycle using Glycine-HCl pH2.0 (Cytiva, BR-1003-55). The sample dilution step and Biacore experiment were performed either under ambient light or dark condition in which the Biacore sample compartment door was covered by aluminum foil.
Double reference subtraction was completed to generate final data. Kinetic rate constants was obtained by applying 1:1 binding model with Biacore T200 evaluation 3.0 software, wherein the Rmax values were fit locally. Binding was assess under dark and ambient light conditions.

T1 sequence (P12271 whole entry): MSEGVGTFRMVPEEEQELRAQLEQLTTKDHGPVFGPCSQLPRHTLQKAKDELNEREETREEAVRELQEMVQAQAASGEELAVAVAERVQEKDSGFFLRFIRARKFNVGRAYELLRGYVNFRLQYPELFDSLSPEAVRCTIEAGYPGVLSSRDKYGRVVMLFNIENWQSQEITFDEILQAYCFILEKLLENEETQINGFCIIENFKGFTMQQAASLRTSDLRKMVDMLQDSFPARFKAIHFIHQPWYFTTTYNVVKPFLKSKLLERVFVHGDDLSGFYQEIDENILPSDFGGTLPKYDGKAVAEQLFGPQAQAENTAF

Which results are given for `CC1=C(/C=C/C(C)=C/C=C\C(C)=C\CO)C(C)(C)CCC1` [11-cis-retinol]?
binding to human CRALBP (ambient light (FIG. 2A)): able to bind; Ka (ambient light): 12.69 M⁻¹ s⁻¹; binding to human CRALBP (dark (FIG. 2B)): able to bind; Ka (dark): 21.03 M⁻¹ s⁻¹
